Test results: ChEMBL document CHEMBL5042474, “Structure-Guided Discovery of Potent and Selective DYRK1A Inhibitors” (J Med Chem, 2021); call rule not given here

Tests used:
[1] = target: T1, Dual specificity tyrosine-phosphorylation-regulated kinase 2 (Homo sapiens, UniProt Q92630); assay: Inhibition of DYRK2 (unknown origin) using Ulight-MBP as substrate and ATP as co-substrate incubated for 40 mins and measured after 1 hr by TR-FRET assay
T1 sequence (Q92630 whole entry): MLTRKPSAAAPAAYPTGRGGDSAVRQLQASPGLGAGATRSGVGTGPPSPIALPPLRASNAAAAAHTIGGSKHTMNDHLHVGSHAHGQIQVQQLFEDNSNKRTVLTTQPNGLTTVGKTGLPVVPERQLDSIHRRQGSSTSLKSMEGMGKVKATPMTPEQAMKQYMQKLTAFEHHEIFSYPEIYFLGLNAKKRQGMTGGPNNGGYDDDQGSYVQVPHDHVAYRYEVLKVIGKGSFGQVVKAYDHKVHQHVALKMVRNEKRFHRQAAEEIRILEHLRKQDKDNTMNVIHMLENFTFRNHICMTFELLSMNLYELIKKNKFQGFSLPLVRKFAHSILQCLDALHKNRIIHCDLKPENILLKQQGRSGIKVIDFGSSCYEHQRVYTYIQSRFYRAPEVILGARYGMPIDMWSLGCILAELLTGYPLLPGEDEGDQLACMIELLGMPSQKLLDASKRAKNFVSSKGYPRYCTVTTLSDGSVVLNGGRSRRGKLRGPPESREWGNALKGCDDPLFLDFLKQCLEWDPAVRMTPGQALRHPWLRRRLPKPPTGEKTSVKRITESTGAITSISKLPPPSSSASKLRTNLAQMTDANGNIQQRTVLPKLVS

[2] = target: T2, Dual specificity tyrosine-phosphorylation-regulated kinase 1A (Homo sapiens, UniProt Q13627); assay: Inhibition of DYRK1A (unknown origin) using Ulight-MBP as substrate and ATP as co-substrate incubated for 40 mins and measured after 1 hr by TR-FRET assay
[3] = target: Cyclin-dependent kinase 9 (Homo sapiens, UniProt P50750); assay: Inhibition of CDK9 (unknown origin) using Ulight-MBP as substrate and ATP as co-substrate incubated for 40 mins and measured after 1 hr by TR-FRET assay
[4] = target: T2, Dual specificity tyrosine-phosphorylation-regulated kinase 1A; assay: Inhibition of wild type full length DYRK1A (unknown origin) in human U2OS cells assessed as reduction in pSER520 autophosphorylation incubated for 5 hrs by western blot analysis; format: cell-based
RS4-11 [5] = assay: Antitumor activity against human RS4-11 cells xenografted in BALB/c nu/nu mouse assessed as reduction in DYRK1A autophosphorylation of S520 residue at 6.25 mg/kg, po measured after 2 hrs by western blotting analysis relative to control; format: functional; design: scale not given: the % may be the effect or the level left
RS4-11 [6] = assay: Antitumor activity against human RS4-11 cells xenografted in BALB/c nu/nu mouse reduction in DYRK1A autophosphorylation of S520 residue at 6.25 mg/kg, po measured after 6 hrs by western blotting analysis relative to control; format: functional; design: scale not given: the % may be the effect or the level left

Cyclin-dependent kinase 9, sequence (P50750 whole entry): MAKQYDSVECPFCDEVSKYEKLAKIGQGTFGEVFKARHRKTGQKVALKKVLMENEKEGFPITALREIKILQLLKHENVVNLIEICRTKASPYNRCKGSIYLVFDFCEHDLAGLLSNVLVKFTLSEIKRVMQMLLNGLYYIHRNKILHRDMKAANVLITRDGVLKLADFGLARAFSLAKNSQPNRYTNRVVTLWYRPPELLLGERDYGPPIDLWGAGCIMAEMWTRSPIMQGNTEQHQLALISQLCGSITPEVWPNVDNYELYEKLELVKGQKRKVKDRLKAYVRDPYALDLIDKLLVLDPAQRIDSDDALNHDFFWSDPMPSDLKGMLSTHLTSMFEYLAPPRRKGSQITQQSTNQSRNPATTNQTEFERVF

Row | IC50 [1] | IC50 [2] | Compound | other results
1 | 34 nM |  | Cc1nc2ccc(-c3cc(N)nc(N)c3)nc2n1CCOc1ccccn1 | 
2 |  | 36 nM | Nc1cc(-c2ccc3occc3c2)nc(N)n1 | 
3 |  | 76 nM | Nc1cc(-c2ccc3oc(Cl)cc3c2)cc(N)n1 | IC50 [3]: 5430 nM; IC50 ([4]; u2os): Not Active
4 |  | 14 nM | Cn1cnc2cc(-c3cc(N)nc(N)c3)ccc21 | 
5 |  | 2 nM | Nc1cc(-c2ccn3nccc3n2)cc(N)n1 | 
6 | 6 nM |  | Cc1nc2ccc(-c3cc(N)nc(N)c3)nc2n1CC(F)(F)F | Activity (RS4-11 [5]): 93%; Activity (RS4-11 [6]): 95%
7 |  | 15 nM | Nc1cc(-c2ccc3ncnn3c2)cc(N)n1 | 
8 |  | 10 nM | Nc1cc(-c2ccc3occc3n2)cc(N)n1 | 
9 | 6 nM |  | Cc1nc2ccc(-c3cc(N)nc(N)c3)nc2n1CCc1ccco1 | 
10 | 6 nM |  | Cc1nc2ccc(-c3cc(N)nc(N)c3)nc2n1C(C)(C)C | 
11 | 5 nM |  | COCCCn1c(C)nc2ccc(-c3cc(N)nc(N)c3)nc21 | 
12 |  | 34 nM | Cc1cc2cc(-c3cc(N)nc(N)c3)ccc2o1 | IC50 [3]: > 10000 nM; IC50 ([4]; read-out: IC50): 1800 nM
13 |  | 137 nM | Nc1cc(-c2ccc3sccc3c2)cc(N)n1 | 
14 |  | 17 nM | Nc1cc(-c2ccc3nccn3c2)cc(N)n1 | 
15 |  | 22 nM | Nc1cc(-c2ccc3ocnc3c2)cc(N)n1 | 
16 |  | 10 nM | Nc1cc(-c2ccc3ncccc3c2)cc(N)n1 | 
17 |  | 16 nM | Nc1cc(-c2ccc3c(c2)CCO3)cc(N)n1 | 
18 |  | 42 nM | Nc1cc(-c2ccc3occc(=O)c3c2)cc(N)n1 | 
19 |  | 1 nM | Nc1cc(-c2ccc3ncsc3c2)cc(N)n1 | 
20 |  | 10 nM | Nc1cc(-c2ccc3ncoc3c2)cc(N)n1 | 
21 |  | 14 nM | Nc1cc(-c2ccc3occc3c2)cc(N)n1 | IC50 [3]: 41 nM; IC50 ([4]; read-out: IC50): 500 nM
22 |  | 13 nM | Cn1cnc2ccc(-c3cc(N)nc(N)c3)nc21 | 
23 | 4 nM |  | Cc1nc2ccc(-c3cc(N)nc(N)c3)nc2n1CC(F)F | 
24 |  | 19 nM | Cc1onc2ccc(-c3cc(N)nc(N)c3)cc12 | 

The remaining lines, values behind:

Row | Compound | IC50 [1] | IC50 [2] | other results
25 | Cc1cc(-c2ccc3occc3c2)cc(N)n1 |  | 77 nM | 
26 | Nc1cc(-c2ccc3occc3c2)cc(NCCc2ccsc2)n1 |  | 189 nM | 
27 | COc1ccc(-c2ccnc(N)c2)cc1 |  | 126 nM | 
28 | Cc1nc2ccc(-c3cc(N)nc(N)c3)nc2n1CCC1CCCCC1 | 9 nM |  | 
29 | c1cc(-c2ccc3occc3c2)ccn1 |  | 320 nM | 
30 | Cc1nc2ccc(-c3cc(N)nc(N)c3)nc2n1Cc1ccc(F)cc1 | 134 nM |  | IC50 ([4]; read-out: IC50): 3000 nM
31 | Cc1cc(-c2ccc(Cl)cc2)ccn1 |  | > 10000 nM | 
32 | Cc1nc2ccc(-c3cc(N)nc(N)c3)nc2n1C1CCCC1 | 1 nM |  | 
33 | Cc1nc2ccc(-c3cc(N)nc(N)c3)nc2n1CCOc1cccc(Cl)n1 | 33 nM |  | IC50 [3]: 222 nM
34 | Cc1nc2ccc(-c3cc(N)nc(N)c3)nc2n1C[C@H](C)Oc1ccccn1 | 117 nM |  | IC50 [3]: > 3000 nM; IC50 ([4]; read-out: IC50): > 300 nM
35 | CNc1cc(-c2ccc3occc3c2)cc(N)n1 |  | 17 nM | 
36 | Cc1nc2ccc(-c3cc(N)nc(N)c3)nc2n1CCCC(F)(F)F | 10 nM |  | 
37 | Cc1nc2ccc(-c3cc(N)nc(N)c3)nc2n1C[C@H](C)Oc1ccccc1 | 22 nM | 8 nM | IC50 [3]: > 3000 nM; IC50 ([4]; read-out: IC50): 73 nM
38 | Cc1nc2ccc(-c3cc(N)nc(N)c3)nc2n1CCOc1ccccc1 | 9 nM |  | Activity (RS4-11 [5]): 59%; Activity (RS4-11 [6]): 25%
39 | Nc1cc(-c2ccc3occc3c2)ccn1 |  | 19 nM | 
40 | Cc1oc2ccc(-c3cc(N)nc(N)c3)cc2c1C | 21 nM | 1 nM | IC50 [3]: 8840 nM; IC50 ([4]; read-out: IC50): 1650 nM
41 | Cc1nc2ccc(-c3cc(N)nc(N)c3)nc2n1C[C@@H](C)Oc1ccccc1 | 46 nM |  | IC50 [3]: > 3000 nM; IC50 ([4]; read-out: IC50): 111 nM
42 | Nc1cc(-c2ccc3c(c2)OCCO3)cc(N)n1 |  | 11 nM | 
43 | COCCCNc1cc(-c2ccc3occc3c2)cc(N)n1 |  | 96 nM | 
44 | COc1ccc(-c2cc(N)nc(N)n2)cc1 |  | 158 nM | 
45 | Cc1nc2ccc(-c3cc(N)nc(N)c3)nc2n1C[C@@H](C)Oc1ccccn1 | 116 nM | 7 nM | IC50 [3]: > 3000 nM
46 | CNCC(=O)Nc1cc(-c2ccc3occc3c2)cc(N)n1 |  | 168 nM | 
47 | Cc1nc2ccc(-c3cc(N)nc(N)c3)nc2n1C[C@@H](C)Oc1cccc(Br)n1 | 195 nM | 5 nM | IC50 [3]: 467 nM; IC50 ([4]; read-out: IC50): 44 nM
48 | COc1cc(-c2ccnc(N)c2)ccc1Cl |  | 218 nM | 
49 | c1cc(-c2ccc3occc3c2)cc(N2CCNCC2)n1 |  | 3560 nM | 
50 | COc1ccc(-c2ccnc(C)c2)cc1 |  | 670 nM | 
51 | Nc1cc(-c2ccc3c(c2)CCO3)nc(N)n1 |  | 22 nM | 
52 | Cc1nc2ccc(-c3cc(N)nc(N)c3)nc2n1CCOc1cccc(Br)n1 | 52 nM |  | IC50 [3]: 289 nM
